The values that follow come from patent publication US20140005054A1, “COMPLEX RNA COMPOSITION OF BODILY FLUIDS” (INSTITUTE FOR SYSTEMS BIOLOGY, priority 2012, published 2014).

A short description of series [1]: Stability of RNA in plasma after enzyme or detergent treatment, qPCR. It counts as in vitro ADME, human. As to the method:
The plasma samples were treated with various conditions (indicated on the top of the figure) prior to RNA isolation. The Y-axis represents the relative concentration change compared to no treatment determined by qPCR. The data represents the average changes from 9 plasma samples. The black bars represent the changes of an endogenous miRNA, miR-16, the open bars are exogenous miRNA, miR-263 from mosquitos and the gray bars are the 16S rRNA from Pseudomonas putida.
To explore the stability of exogenous RNA in plasma, we treated the plasma with RNase A from Fermentas™ (Thermo Scientific™, Wilmington, Del.) at a concentration at 1 μg/ml, DNase I (Fermentas™, Thermo Scientific™, Wilmington, Del.) at a concentration of 1 unit/ml, protease K (Fermentas™, Thermo Scientific™, Wilmington, Del.) at a concentration of 0.05 mg/ml, 0.1% Triton™ X 100, or protease K for 20 minutes followed by additional RNase A at 1 μg/ml after heat inactivation of protease K at 70° C. for 10 minutes prior for RNA isolation.
Adding additional RNase caused less reduction compared to protease followed by RNase treatments.
A general note: Real-time PCR tracks product formation cycle by cycle.

In series [2] the test system is mouse dicer deficient (DCR −/−) fibroblast cell line. The experiment in a line: Transfection of synthetic exogenous RNA into fibroblasts, effect on transcriptome (microarray, pathway enrichment of down-regulated genes). It counts as cell-based. The settings on record: 10 nM synthetic RNA, 24 hours; for effects on the cellular transcriptome (gene expression profiles): microarray; for Affected pathways: pathways enriched among down-regulated genes. An excerpt:
We transfected several synthetic, double-stranded RNA molecules selected from observed exogenous miRNA sequences and some highly abundant exogenous sequences (bacterial rRNAs) that have potential to form pre-miRNA-like secondary structures (FIG. 7) into a mouse fibroblast cell line.
The mouse dicer deficient (DCR −/−) fibroblast cell line was generated from a conditional cre and floxed Dicer allele transgenic mouse available from Jax (located on the web at jaxmice.jax.org/strain/006001.html) kindly provided by Dr. Jacques Peschon. Part of the RNase III domain encoded in the exon 23 of dicer gene was deleted following cre excision. DCR −/− cells were maintained in Dulbecco's modified Eagle's medium with high glucose. The media was supplemented with 10% FBS, 1% non-essential amino acid, 1% GlutaMAX™. The cells were routinely incubated at 37° C. in a humidified atmosphere with 5% CO2.
Lipofectamine™ RNAiMAX was purchased from Invitrogen (Life Technologies, Carlsbad, Calif.). Custom designed exogenous RNA used in transfection was obtained from Ambion (Life Technologies, Carlsbad, Calif.). DCR −/− cells were seeded at a density of 1×10^5 cells in 6-well tissue culture plates 24 h prior to transfect with 10 nM of synthetic RNAs. Cells exposed to transfection reagents only were used as control. After 24 hours in the transfection media, the cells were harvested for RNA isolation and the transfection efficiency was validated with qPCR.
Effects of exogenous RNAs on transcriptome were assessed by using the Agilent mouse 4×44K microarray (Agilent, Santa Clara, Calif.). Total RNAs were isolated with an miRNeasy® column (Qiagen, Valencia, Calif.), and both Cy3 and Cy5-labeled cRNA samples were prepared with two color labeling kit (Agilent Technologies, Santa Clara, Calif.) and then hybridized at 65° C. for 17 h. Signal intensity was calculated from digitized images captured by a scanner from Agilent (Santa Clara, Calif.), and data analysis was performed by using GeneSpring GX software (Agilent Technologies, Santa Clara, Calif.).
The expression profiles of a number of genes in the cells were affected by some of the exogenous RNA sequences. We verified the changes in levels of some of these affected genes' mRNA by QPCR (FIG. 8).

For series [3], the system named is mouse. The settings on record: in vivo.
Source text: An acetaminophen overdose mouse model for drug-induced liver injury was employed to determine the effect of liver injury on the RNA spectrum.
Series [4] concerns mouse.

Consider “miR-263: exogenous miRNA AAUGGCACUGGAAGAAUUCACGG, miR-263a from mosquito; synthetic form transfected, native form measured in plasma (synthetic double-stranded RNA, chemistry not given here; listed as Culex pipiens)”, for which the “level of RNA in plasma after treatment” value in series [1] (0.1% Triton X-100 prior to RNA isolation), in series [1] (RNase A 1 μg/ml prior to RNA isolation), in series [1] (protease K 0.05 mg/ml prior to RNA isolation) and in series [1] (protease K for 20 minutes followed by RNase A 1 μg/ml) was “reduced significantly” in each case. The “effects on the cellular transcriptome (gene expression profiles)” value in series [2] is on record as “did not produce any significant effects”. Besides, in series [2], the Affected pathways result is “No enriched pathway”.

Take `CC(=O)Nc1ccc(O)cc1` [acetaminophen]: in series [3], the “level of albumin transcript in plasma” value is reported as “significantly increased”, the “level of apolipoprotein A2 (apoA2) transcript in plasma” value was “significantly increased”, the “level of transferrin transcript in plasma” value was “significantly increased” and the “number of transcripts in plasma affected” value is “Several hundred”. Also, in series [3], the “time course of albumin transcript level in plasma” value is “spiked after 3 hours and decreased over a 24 hour period”; the “time course of apoA2 transcript level in plasma” value was “spiked after 3 hours and decreased over a 24 hour period”; the “time course of transferrin transcript level in plasma” value is “increased to a lesser extent but held reasonably steady over a 24-hour period”. The “histopathology of liver tissues” value in series [4] (acetaminophen overdose) is given as “typical zoon 3 hepatocyte death”. Further, the “histopathology of kidney tissues” value in series [4] (mouse, in vivo) is “renal tubular injury”.

Turning to “Bantam: synthetic RNA UGAGAUCAUUGUGAAAGCUGAUU, Bantam miRNA from house fly (synthetic double-stranded RNA, chemistry not given here; listed as Musca domestica)”, in series [2], the “effects on the cellular transcriptome (gene expression profiles)” value is recorded as “did not produce any significant effects” and the Affected pathways entry is recorded as “No enriched pathway”.
